Test results: patent US10500169B2, “Supression of IgE production by compounds derived from traditional chinese medicine” (Sean N. Parker Foundation, priority 2014, dated 2019)

Experiments:
[1] = In vivo pharmacokinetics study of berberine bioavailability, serum LC-MS; conditions: C3H/HeJ, mouse, oral berberine 2 mg, with or without Angelica sinensis 10 mg, 1 hr after administration, read-out: Concentration of berberine in serum from mice
Description: C3H/Hej mice were purchased from Jackson laboratory (Bar Harbor, Me.) and maintained in the animal facility at Mount Sinai School of Medicine^(39). Standard guidelines for the care and use of animals were followed (Institute of Laboratory Animal Resources Commission of Life Sciences, 1996). In order to study the bioavailability, C3H/Hej mice were randomly separated into two groups. Mice were fasted for 12 h before the oral administration of berberine (2 mg) or berberine (2 mg)+Angelica sinensis (10 mg). Blood samples (100 μl) were collected from the facial vein at 1 hr after the administration. The serum of each blood sample was prepared and stored at −80° C. for further analysis. For in vivo study of berberine bioavailability, 50 μL of each serum sample was mixed with 400 μL of acetonitrile and vortexed thoroughly. The mixture was then centrifuged at 1000 rpm for 15 mins. The supernatant was dried under vacuum and resuspended into 50 μL of acetonitrile. All samples were analyzed using waters LC-MS system (Waters corp. MA) for berberine detection. Molecular weight was identified by LC-MS/TOF analysis in elctrospray (ESI) positive mode. The LCT premier TOF mass spectrometer (Waters Corporation, Milford, Mass.) was coupled to Waters Alliance 2695 HPLC system. […]. The mass range was from m/z 50 to 1000 in W optics mode. […]

human PBMCs [2] = experiment: IgE production by PBMCs from food allergic patients stimulated with rIL-4 and anti-CD40 mAb, ELISA; format: cell-based; conditions: 10 days
Description: PBMCs were isolated by Ficoll Hypaque (Pharmacia, Piscataway, N.J.) using density gradient centrifugation at 1800 RPM for 30 minutes, and washed 3 times in PBS. To determine the optimal stimulation of IgE production by PBMCs, PBMCs at 1.5×10^6 cells/mL were suspended in complete RPMI medium (200 μM L-glutamine, 1% penicillin/streptomycin, 25 mM HEPES, 10% heat inactivated fetal calf serum), and co-stimulated with human recombinant IL-4 (rIL-4) at 0.01 and 0.1 μg/mL (R&D Systems, Minneapolis, Minn., USA) and anti-CD40 monoclonal antibody (mAb) at […] (R&D) for 10 and 14 days. At the end of incubation, the supernatants were collected and IgE levels were analyzed using ELISA kit (Mabtech Inc, OH). Since PBMCs stimulated with 100 ng/mL rIL-4 and 1 μg/mL anti-CD40 mAb produced the highest level of IgE, we used this culture condition for the subsequent studies. PBMCs were stimulated with 100 ng/mL rIL-4 and 1 μg/mL anti-CD40 mAb and cultured in the presence or absence of 20 μg/mL of the two purified compounds for 10 days for screening active compounds, and at different concentrations (0.15, 0.31, 0.62, 1.25, 2.5, 5, 10 μg/mL) to examine dose responses for the effective compounds. IgE level was evaluated using ELISA. The percentage of IgE inhibition was calculated as follows: […]. In some cases if enough PBMCs were obtained, aliquots of PBMCs prepared from the same individuals were used for different experiments.

B cells in Human PBMCs = experiment: Apoptosis by flow cytometry, annexin V staining of CD19 B cells in PBMCs; format: cell-based; conditions: 10 μg/ml, 2 days incubation
human PBMCs [3] = experiment: Cell viability of human PBMC, trypan blue exclusion; format: cell-based; conditions: any dose tested
Description: Cell viability was evaluated using a trypan blue exclusion as previously described. Briefly, a 10 μl of cells suspension from each culture was mixed with equal volume of trypan blue dye. The mixture was loaded into a hemocytometer and cells were counted under a microscope. The percentage of viable cells was calculated as follows: Viable cells (%)=(total number of viable cells)/(total number of cells)×100.

GATA-3 = experiment: RT-PCR gene expression in stimulated PBMCs: GATA-3; format: cell-based, human; conditions: 10 μg/mL
Description: (§1) Quantitative real time PCR was used to detect the epsilon germline transcription. Human PBMC cells (1.5×10^6 cells/mL) were co-incubated with DMF-C1 compound (10 μg/mL) at 37° C. under 5% CO2 for 4 days. Cells were then harvested and total RNA was isolated using Trizol reagent (Gibco BRL, Rockville, Md.) following the manufacturer's instructions. The RNA concentrations were then quantified by triplicate optical density (OD) readings (Bio-Rad SmartSpect 3000; Bio-Rad, Hercules, Calif.). The reverse transcription was performed to get the cDNA using ImProm-II™ Reverse Transcriptase (Promega Corporation, Madison, Wis.) as described by the manufacturer's instructions. The RT-PCR amplification was performed using Maxima™ SYBR Green qPCR Master Mix (2×) kit (Fisher Scientific, Pittsburgh, Pa.) with epsilon germline primers or GAPDH primers. The primer sequences were listed as εGLT forward: 5′-[…]-3′; εGLT reverse: 5′-[…]-3′; GAPDH-forward: 5′-[…]-3′; GAPDH-reverse: 5′-[…]-3′; STAT3-forward: 5′-[…]-3′; STAT3-reverse: 5′-[…]-3′; T-bet-forward: 5′-[…]-3′; T-bet-reverse: 5′-[…]-3′; IFN-γ-forward: 5′-[…]-3′; IFN-γ-reverse: 5′-[…]-3′; IL-10-forward: 5′-[…]-3′; IL-10-reverse: 5′-[…]-3′. IL-5-forward. 5′-[…] TGCA-3′; IL-5-reverse: 5′-[…]-3′. All primers were synthesized by Sigma-Aldrich Corporation (St. Louis, Mo.).

STAT3 = experiment: RT-PCR gene expression in stimulated PBMCs: STAT3; format: cell-based, human; conditions: 10 μg/mL
Description: as §1

εGLT = experiment: RT-PCR of epsilon germline transcripts in PBMCs; format: cell-based, human; conditions: 10 μg/mL, 4 days, vs untreated cultures
Description: as §1

T-bet = experiment: RT-PCR gene expression in stimulated PBMCs: T-bet; format: cell-based, human; conditions: 10 μg/mL
Description: as §1

COc1ccc2cc3[n+](cc2c1OC)CCc1cc2c(cc1-3)OCO2 [berberine]
concentration at 1 h [1]: 280 ng/mL
inhibition of IgE production by human PBMCs (human PBMCs [2]; 20 μg/mL, rIL-4 100 ng/mL + anti-CD40 mAb 1 μg/mL): completely inhibited
inhibition at 0.62 µg/mL (human PBMCs [2]; Homo sapiens, PBMC, 240 h, 0.62 μg/mL, read-out: inhibition percentage of IgE production by PBMCs): 80.7 ± 9.24%
IC50 (human PBMCs [2]; Homo sapiens, PBMC, 240 h, rIL-4 + anti-CD40 mAb, read-out: IC50 of inhibition of IgE production by PBMCs): 0.2 µg/mL
annexin V stained B cells (B cells in Human PBMCs): about 16%
cell viability of human PBMC (human PBMCs [3]): not compromised
GATA-3 expression (GATA-3): No significant change
mRNA expression of STAT-3 (STAT3): significantly increased
relative mRNA expression of εGLT (εGLT): significantly inhibited
mRNA expression of T-bet (T-bet): significantly increased
